Measured values: patent US20250057973A1, “Exosomes for treating glioblastoma multiforme and manufacturing method thereof” (China Medical University, priority 2023, published 2025)

Tests used:
[1] = system: GBM cell line U87; experiment: Cell death rate of GBM cells in the blood-brain barrier cell culture model; type: cell-based; settings: U87, BBB model
Procedure: The blood-brain barrier cell culture model 10 includes a first culture area 11 and a second culture area 12, with multiple perforations 13 connecting the first culture area 11 and the second culture area 12. The first culture area 11 and the second culture area 12 are filled with a hydrogel A. The GBM cell line U87 is cultured in the hydrogel A of the first culture area 11, while endothelial cells 20, pericytes 30, and astrocytes 40 are sequentially arranged in the second culture area 12. Wherein the resistance value of the blood-brain barrier cell culture model 10 is set to 214462 Ω.cm^2 to establish an impedance environment of the blood-brain barrier. In subsequent experiments, the drug carrier is given to the second culture area 12 of the blood-brain barrier cell culture model 10, and experimental analysis is performed on the GBM cell line U87 in the first culture area 11 to confirm the efficacy and therapeutic effect of the drug carrier crossing from the second culture area 12 to the first culture area 11. […]

[2] = system: GBM cell line (U87); experiment: Animal model of glioblastoma multiforme (U87 implanted into mouse brain): body weight, survival, tumor growth; type: in vivo, mice
Procedure: To corroborate the actual effect of the drug carrier in living organisms, in a further experiment, 10^6 cells of the GBM cell line (U87) were implanted into the brains of mice to establish an animal model of glioblastoma multiforme. Seven days after the implantation surgery, the mice were administered the chemotherapy drug and/or drug carrier via intravenous injection, and imaging was used to confirm the growth status of the chemotherapy drug and/or drug carrier and the GBM cell line in the mouse brain. […]
FIGS. 10D and 10E further analyze the fluorescence expression (intensity (10^6)) of the GBM cell line in the brain area of the experimental mice in each group, and present the tissue morphology through hematoxylin-eosin staining (H&E staining) technique in the tissue section staining images to analyze the growth status of the GBM cells. […]

Question: For `Cn1nnc2c(C(N)=O)ncn2c1=O` [TMZ, Temodal], which “cell death rate (%) of the GBM cells” value ([1]; 1st to 3rd day overall) is on record?
Answer: significant cell death rate

Question: What about the “cell death rate (%) of the GBM cells, third day” value ([1]; by the third day) of the same compound?
Answer: tended to moderate

Question: What about the “survival rate of the experimental mice” value ([2]; U87 brain-implanted mice, intravenous injection) of the same compound?
Answer: increased

Question: And the “growth of the GBM cell line in brain (fluorescence intensity)” value ([2]; compared with Clt and αHLA-G EV groups)?
Answer: inhibited to some extent
